pEC50: −log10 of the molar value.
Assays:
Format in all cases: cell-based
F508del-CFTR [1] = target: T1, F508del-CFTR (Homo sapiens, UniProt P13569, DEL508-508); assay: Short-circuit current recordings on human bronchial epithelial cells (F508del/F508del); set-up: Human bronchial epithelial (HBE) cells obtained from CF patients (F508del/F508del genotype); endogenous in cells; host or cells: primary human bronchial epithelial cells from CF patients, F508del/F508del; conditions: HBE cells from CF patients (F508del/F508del), 24 hrs treatment; table 3
Experimental: Short-Circuit Current Recordings on Human Bronchial Epithelial Cells
Human bronchial epithelial (HBE) cells obtained from CF patients (F508del/F508del genotype) were plated on Snapwell inserts (Code 3801, Corning Life Sciences) at a density of 500,000 cells per insert. Cells were cultured for two weeks in a differentiating medium whose compositions has been previously described (Scudieri et al., J Physiol 590:6141-6155, 2012). For the first week, the medium was kept on both apical and basolateral sides of inserts (submerged condition). For the second week, the apical medium was removed (air-liquid condition, ALC). To test the activity of correctors, cells were treated for 24 hrs with compounds dissolved in the basolateral medium. After treatment, Snapwell inserts carrying differentiated bronchial epithelia were mounted in a vertical chamber resembling an Ussing system with internal fluid circulation. Both apical and basolateral hemichambers were filled with 5 mL of a Krebs bicarbonate solution containing (in mM): 126 NaCl, 0.38 KH2PO4, 2.13 K2HPO4, 1 MgSO4, 1 CaCl2), 24 NaHCO3, and 10 glucose. Both sides were continuously bubbled with a gas mixture containing 5% CO2-95% air and the temperature of the solution was kept at 37° C. The transepithelial voltage was short-circuited with a voltage-clamp (DVC-1000, World Precision Instruments) connected to the apical and basolateral chambers via Ag/AgCl electrodes and agar bridges (1 M KCl in 1% agar). The offset between voltage electrodes and the fluid resistance were canceled before experiments. The short-circuit current was recorded with a PowerLab 4/25 (ADInstruments) analogical to digital converter connected to a Macintosh computer. […] The difference between the current measured with CPT-cAMP plus potentiator and the current remaining after CFTRinh-172 treatment (ΔICFTR) was taken as the parameter reflecting F508del-CFTR expression in the apical membrane.
Activities of selected compounds on HBE cells (expressed as ΔICFTR) are illustrated in table 3 wherein +: ΔICFTR<2.0 μA; ++: 2.0 μA<ΔICFTR<3.0 μA; +++: ΔICFTR>3.0 μA.

F508del-CFTR [2] = target: T1, F508del-CFTR; assay: Transepithelial electrical conductance (TEEC) in FRT cells expressing F508del-CFTR; set-up: expressed in transfected cells; host or cells: FRT cells; conditions: compounds tested at 5.0 μM, 24 hrs, table 2
Experimental: Transepithelial Electrical Conductance (TEEC)
FRT cells expressing F508del-CFTR were plated on HTS Transwell-24 well permeable supports (Code 3379, Corning Life Sciences) at a density of 200,000 cells/well. After six days, cells were incubated for 24 hrs with test correctors, vehicle, or VX-809. Compounds were dissolved in both basolateral (800 μL) and apical (300 μL) culture medium. After treatment, the culture medium was removed and replaced on both sides with a saline solution containing (in mM): 130 NaCl, 2.7 KCl, 1.5 KH2PO4, 1 CaCl2), 0.5 MgCl2, 10 glucose, 10 Na-Hepes (pH 7.4). The basolateral and apical side received 800 μL and […], respectively. The 24-well tray with cells was placed on a block heater (SBH 130D, Stuart) to keep the temperature at 37° C. during the entire experiment. After 10 min, the basal transepithelial electrical resistance (TEER) across each layer of FRT cells was measured with a STX100C electrode pair connected to an EVOM2 voltohmeter (World Precision Instruments). To stimulate F508del-CFTR, each well received (apical side) 50 μL of saline solution containing 60 μM forskolin and 150 μM genistein (final concentrations: 20 μM forskolin, 50 μM genistein). Forskolin was also pipetted in the basolateral medium to obtain the 20 μM concentration. After 10 min TEER was measured again in each well. To block F508del-CFTR function, the inhibitor PPQ-102 was used at the final concentration of 30 μM. To achieve the desired concentration, 75 μL of the apical solution in each well was replaced with an equal volume of saline solution containing 20 μM forskolin, 50 μM genistein, and 60 μM PPQ-102. After further 10 min, the transepithelial electrical resistance was measured. All values of TEER were converted to transepithelial electrical conductance (TEEC) using the formula TEEC=1/TEER. The parameter to indicate activity of F508del-CFTR in each well (ATEEC) was calculated from the difference in TEEC measured after maximal stimulation of F508del-CFTR with forskolin and genistein and after block with PPQ-102.
Corrector activities obtained on selected compounds tested at 5.0 μM (expressed as ΔTEEC values) are illustrated in table 2, wherein +: ΔTEEC<2000 μS; ++: 2000 μS<ΔTEEC<3000 μS; […]: ΔTEEC>3000 μS.

mutant CFTR = target: T2, mutant CFTR (Homo sapiens, UniProt P13569, DEL508-508); assay: Fluorescence (HS-YFP) assay for CFTR activity, corrector assay; conditions: CFBE41o- and FRT cells with stable expression of mutant CFTR, 24 h compound treatment
T2 construct: expressed in transfected cells
Outline: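 CFBE41o- or FRT cells stably expressing mutant CFTR and HS-YFP were exposed to compounds for 24 h (corrector mode), then stimulated 30 min at 37° C with forskolin (20 μM) plus genistein (50 μM). YFP quenching after 100 mM iodide injection; initial slope from exponential fit of final 10 s; EC50 reported.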

T1 sequence (P13569 with tags, fused parts or gaps DEL508-508): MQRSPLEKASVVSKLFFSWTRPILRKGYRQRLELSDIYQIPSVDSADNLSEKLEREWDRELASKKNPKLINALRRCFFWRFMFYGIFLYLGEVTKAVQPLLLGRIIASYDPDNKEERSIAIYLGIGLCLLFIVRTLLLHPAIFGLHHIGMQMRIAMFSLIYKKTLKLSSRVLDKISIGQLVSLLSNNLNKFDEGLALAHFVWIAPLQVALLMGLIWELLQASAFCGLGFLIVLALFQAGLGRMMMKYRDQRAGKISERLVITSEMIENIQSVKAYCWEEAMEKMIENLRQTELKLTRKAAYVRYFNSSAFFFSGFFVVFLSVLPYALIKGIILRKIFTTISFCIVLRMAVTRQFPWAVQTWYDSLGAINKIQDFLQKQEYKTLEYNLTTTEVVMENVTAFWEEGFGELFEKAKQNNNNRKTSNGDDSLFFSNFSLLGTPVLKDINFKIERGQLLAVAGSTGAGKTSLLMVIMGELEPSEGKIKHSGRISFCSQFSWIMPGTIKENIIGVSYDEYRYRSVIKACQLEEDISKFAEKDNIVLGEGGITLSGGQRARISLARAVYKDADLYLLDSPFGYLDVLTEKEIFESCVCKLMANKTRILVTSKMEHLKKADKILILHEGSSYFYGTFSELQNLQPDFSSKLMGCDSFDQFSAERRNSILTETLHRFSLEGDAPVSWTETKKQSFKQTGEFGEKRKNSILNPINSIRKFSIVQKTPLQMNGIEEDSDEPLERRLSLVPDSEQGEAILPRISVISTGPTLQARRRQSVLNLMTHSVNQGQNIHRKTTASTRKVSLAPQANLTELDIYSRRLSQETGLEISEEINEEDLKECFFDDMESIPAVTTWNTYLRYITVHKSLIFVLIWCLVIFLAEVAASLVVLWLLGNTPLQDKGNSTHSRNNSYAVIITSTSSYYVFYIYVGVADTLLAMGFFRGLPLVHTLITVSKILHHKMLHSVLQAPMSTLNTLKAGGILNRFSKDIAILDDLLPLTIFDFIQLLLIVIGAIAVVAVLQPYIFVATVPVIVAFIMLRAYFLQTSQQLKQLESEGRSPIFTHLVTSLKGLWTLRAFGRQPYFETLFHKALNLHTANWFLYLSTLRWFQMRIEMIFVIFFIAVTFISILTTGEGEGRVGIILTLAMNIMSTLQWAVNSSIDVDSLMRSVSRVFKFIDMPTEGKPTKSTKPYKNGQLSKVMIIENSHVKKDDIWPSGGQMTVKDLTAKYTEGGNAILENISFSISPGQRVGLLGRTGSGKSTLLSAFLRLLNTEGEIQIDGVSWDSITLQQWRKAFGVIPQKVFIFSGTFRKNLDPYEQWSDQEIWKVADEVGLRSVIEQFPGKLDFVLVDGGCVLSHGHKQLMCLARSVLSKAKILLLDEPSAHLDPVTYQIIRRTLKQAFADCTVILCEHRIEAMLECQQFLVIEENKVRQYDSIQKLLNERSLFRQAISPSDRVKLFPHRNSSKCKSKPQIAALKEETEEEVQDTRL
T2 sequence (P13569 with tags, fused parts or gaps DEL508-508): as above

`Cc1nn(-c2cccc(C(=O)N(C)c3ccc4c(c3)OC(F)(F)O4)c2)c(C)c1Cl` [compound 009, 3-(4-Chloro-3,5-dimethyl-pyrazol-1-yl)-N-(2,2-difluoro-1,3-benzodioxol-5-yl)-N-methyl-benzamide] was tested, and the “activity on HBE cells (ΔICFTR)” value (F508del-CFTR [1]) was “++ (2.0 μA<ΔICFTR<3.0 μA)”, the “Corrector activity (ΔTEEC)” value (F508del-CFTR [2]) was “+ (ΔTEEC<2000 μS)” and the pEC50 (mutant CFTR) was 5.70 to 6.00.

In the case of `CCOC(=O)c1c(Cl)c(C)nn1-c1cccc(C(=O)N(C)c2ccc3c(c2)OCO3)c1` [compound 075, Ethyl 2-[3-[1,3-benzodioxol-5-yl(methyl)carbamoyl]phenyl]-4-chloro-5-methyl-pyrazole-3-carboxylate], the “activity on HBE cells (ΔICFTR)” value (F508del-CFTR [1]) was “+ (ΔICFTR<2.0 μA)”, the “Corrector activity (ΔTEEC)” value (F508del-CFTR [2]) was “+ (ΔTEEC<2000 μS)” and the pEC50 (mutant CFTR) was greater than 6.00.

In the case of `Cc1nc2cc(Cl)c(N(C)C(=O)c3cccc(-n4nc(C)c(Cl)c4C)c3)cc2o1` [compound 080, 3-(4-Chloro-3,5-dimethyl-pyrazol-1-yl)-N-(5-chloro-2-methyl-1,3-benzoxazol-6-yl)-N-methyl-benzamide], the “activity on HBE cells (ΔICFTR)” value (F508del-CFTR [1]) was “++ (2.0 μA<ΔICFTR<3.0 μA)”, the “Corrector activity (ΔTEEC)” value (F508del-CFTR [2]) was “++ (2000 μS<ΔTEEC<3000 μS)” and the pEC50 (mutant CFTR) was greater than 6.00.

In the case of `Cc1nn(-c2cccc(C(=O)N(C)c3ccc4c(c3)OCO4)c2)c(C(=O)OC(C)(C)C)c1Cl` [compound 089, Tert-butyl 2-[3-[1,3-benzodioxol-5-yl(methyl)carbamoyl]phenyl]-4-chloro-5-methyl-pyrazole-3-carboxylate], the “activity on HBE cells (ΔICFTR)” value (F508del-CFTR [1]) was “+++ (ΔICFTR>3.0 μA)”, the “Corrector activity (ΔTEEC)” value (F508del-CFTR [2]) was “+ (ΔTEEC<2000 μS)” and the pEC50 (mutant CFTR) was greater than 6.00.

For `Cc1c(Cl)c(C(F)(F)F)nn1-c1cccc(C(=O)N(C)c2ccc3c(c2)OCO3)c1` [compound 090, N-(1,3-Benzodioxol-5-yl)-3-[4-chloro-5-methyl-3-(trifluoromethyl)pyrazol-1-yl]-N-methyl-benzamide], the “activity on HBE cells (ΔICFTR)” value (F508del-CFTR [1]) was “+++ (ΔICFTR>3.0 μA)”, the “Corrector activity (ΔTEEC)” value (F508del-CFTR [2]) was “++ (2000 μS<ΔTEEC<3000 μS)” and the pEC50 (mutant CFTR) was greater than 6.00.

With `Cc1c(Br)c(C(F)(F)F)nn1-c1cccc(C(=O)N(C)c2ccc3c(c2)OCO3)c1` [compound 098, N-(1,3-Benzodioxol-5-yl)-3-[4-bromo-5-methyl-3-(trifluoromethyl)pyrazol-1-yl]-N-methyl-benzamide] the “activity on HBE cells (ΔICFTR)” value (F508del-CFTR [1]) was “+++ (ΔICFTR>3.0 μA)”, the “Corrector activity (ΔTEEC)” value (F508del-CFTR [2]) was “++ (2000 μS<ΔTEEC<3000 μS)” and the pEC50 (mutant CFTR) was greater than 6.00.

For `Cc1nn(-c2cccc(C(=O)N(C)c3ccc4c(c3)OCO4)c2)c(C)c1C(F)(F)F` [compound 099, N-(1,3-Benzodioxol-5-yl)-3-[3,5-dimethyl-4-(trifluoromethyl)pyrazol-1-yl]-N-methyl-benzamide], the “activity on HBE cells (ΔICFTR)” value (F508del-CFTR [1]) was “++ (2.0 μA<ΔICFTR<3.0 μA)”, the “Corrector activity (ΔTEEC)” value (F508del-CFTR [2]) was “++ (2000 μS<ΔTEEC<3000 μS)” and the pEC50 (mutant CFTR) was greater than 6.00.

For `CC(C)Cc1cc(C(F)(F)F)nn1-c1cccc(C(=O)N(C)c2ccc3c(c2)OCO3)c1` [compound 100, N-(1,3-Benzodioxol-5-yl)-3-[5-isobutyl-3-(trifluoromethyl)pyrazol-1-yl]-N-methyl-benzamide], the “activity on HBE cells (ΔICFTR)” value (F508del-CFTR [1]) was “+ (ΔICFTR<2.0 μA)”, the “Corrector activity (ΔTEEC)” value (F508del-CFTR [2]) was “+ (ΔTEEC<2000 μS)” and the pEC50 (mutant CFTR) was greater than 6.00.

For `Cc1nc2ccc(N(C)C(=O)c3cccc(-n4nc(C(F)(F)F)c(Cl)c4C)c3)cc2o1` [compound 108, 3-[4-Chloro-5-methyl-3-(trifluoromethyl)pyrazol-1-yl]-N-methyl-N-(2-methyl-1,3-benzoxazol-6-yl)benzamide], the “activity on HBE cells (ΔICFTR)” value (F508del-CFTR [1]) was “+ (ΔICFTR<2.0 μA)”, the “Corrector activity (ΔTEEC)” value (F508del-CFTR [2]) was “++ (2000 μS<ΔTEEC<3000 μS)” and the pEC50 (mutant CFTR) was greater than 6.00.

For `CN(C(=O)c1cccc(-n2nc(C(F)(F)F)cc2-c2ccccc2)c1)c1ccc2c(c1)OCO2` [compound 125, N-(1,3-Benzodioxol-5-yl)-N-methyl-3-[5-phenyl-3-(trifluoromethyl)pyrazol-1-yl]benzamide], the “activity on HBE cells (ΔICFTR)” value (F508del-CFTR [1]) was “+ (ΔICFTR<2.0 μA)”, the “Corrector activity (ΔTEEC)” value (F508del-CFTR [2]) was “+ (ΔTEEC<2000 μS)” and the pEC50 (mutant CFTR) was greater than 6.00.

With `CCOC(=O)c1ccc(OCc2c(Cl)c(C)nn2-c2cccc(C(=O)N(C)c3ccc4c(c3)OCO4)c2)cc1` [compound 141, Ethyl 4-[[2-[3-[1,3-benzodioxol-5-yl(methyl)carbamoyl]phenyl]-4-chloro-5-methyl-pyrazol-3-yl]methoxy]benzoate] the “activity on HBE cells (ΔICFTR)” value (F508del-CFTR [1]) was “+++ (ΔICFTR>3.0 μA)”, the “Corrector activity (ΔTEEC)” value (F508del-CFTR [2]) was “++ (2000 μS<ΔTEEC<3000 μS)” and the pEC50 (mutant CFTR) was greater than 6.00.

`Cc1nn(-c2cccc(C(=O)N(C)c3ccc4c(c3)OCO4)c2)c(COc2ccc(C(=O)O)cc2)c1Cl` [compound 144, 4-[[2-[3-[1,3-Benzodioxol-5-yl(methyl)carbamoyl]phenyl]-4-chloro-5-methyl-pyrazol-3-yl]methoxy]benzoic acid] was tested, and the “activity on HBE cells (ΔICFTR)” value (F508del-CFTR [1]) was “++ (2.0 μA<ΔICFTR<3.0 μA)” and the pEC50 (mutant CFTR) was greater than 6.00.

Source: patent US12492193B2, “Pyrazole derivatives for the treatment of cystic fibrosis” (Fondazione Istituto Italiano Di Tecnologia, priority 2017, dated 2025)
